Measured values published in patent US20260078135A1, “POLYCYCLIC QUINAZOLINES FOR INHIBITION OF ERBB2” (Enliven Inc., priority 2022, published 2026).

Assays:
[1] = target: T1, phosphorylated ERBB2 (pERBB2) (Homo sapiens, UniProt P04626); assay: Detection of phosphorylated ERBB2 (pERBB2) by ELISA in BT-474 cells; assay type: cell-based; details: four hour incubation
T1 construct: endogenous in cells; host or cells: BT-474
Protocol: BT-474 cells were seeded into a 96-well at 2.0*10^4 cells/100 μl/well. Compounds were dissolved and serially diluted in DMSO. The compounds were then were added, mixed, and incubated for four hours at 37° C., 5% CO2. Compounds were added using four-fold dilutions at final concentrations ranging from 10 μM to 0.01 nM. Following the four hour incubation with compounds, cell lysates were prepared. Plates were centrifuged for 5 μmin at 3000 RPM, and supernatant was removed from each well. Cells were washed 3 times by resuspension in 150 μl PBS, followed by centrifugation and removal of the supernatant, as above. 100 μl of cell lysis buffer (Boston BioProducts, cat #BP-115D) supplied with 1× complete ULTRA cocktail inhibitor (Thermo ScientificTM, cat #78443) was then added to the washed cells. Cells were incubated with lysis buffer for 1 hour at 4° C., and then stored at -80° C. Enzyme-linked immunosorbent assays (ELISA) were performed to measure phosphorylated ERBB2 levels. […] The next day, plates were washed with PBS+0.05% Tween20 (PBST). 150 μl of 5% BSA blocking solution was added for 1 hour at room temperature, with shaking. Plates were washed with PBST. Cell lysates were thawed and 100 μl of lysate was added to the ELISA plate. The plates were incubated for 2 hours at room temperature, with shaking. ELISA plates were then washed with PBST and 100 μl of an HRP-labeled detection antibody that binds phosphorylated tyrosine (R&D Systems, cat #841913) was added to each well. Plates were incubated for 1 hour at room temperature, with shaking. Plates were then washed with PBST, and 100 μl TMB substrate solution (R&D Systems, cat #DY999) was added. Plate were incubated in the dark for 20 minutes at room temperature. 50 μl of Stop solution (R&D Systems, cat #DY994) (50 μl) was added to each well and mixed. Optical density at 450 nm was read on an EnSpire plate reader (Perkin Elmer). The remaining kinase activity by calculated using the following formula: % Relative activity=100×([…]). The low and high control values (“LC” and “HC”) were generated from lysate from wells without cells or with cells treated with 0.1% DMSO, respectively.

[2] = target: T2, phosphorylated EGFR (pEGFR) (Homo sapiens, UniProt P00533); assay: Detection of phosphorylated EGFR (pEGFR) by AlphaLISA in EGF-stimulated A431 cells; assay type: cell-based; details: A431 cells (10% FBS), 4 hours incubation, EGF 30 ng/mL for 10 minutes
T2 construct: performed to measure phosphorylated EGFR levels using A431 cells (10% FBS); endogenous in cells; host or cells: A431
Protocol: Enzyme-linked immunosorbent assays (ELISA) were performed to measure phosphorylated EGFR levels using A431 cells (10% FBS). A431 (1.0*10^4 cells/40 μl/well) cells were seeded in 384 well. Compounds were dissolved in DMSO, serially diluted in DMSO and then were added, mixed, and incubated for 4 hours at 37° C., 5% C02. Following the 4-hours incubation, cells were stimulated for 10 minutes with EGF (Invitrogen, cat #PHG0311) at a final concentration of 30 ng/mL in the incubator. The media was aspirated and cells were lysed in 10 μL lysis buffer with protease and phosphatase inhibitors (PerkinElmer, cat #ALSU-PEGFR-A50K). The plates were placed on a shaker for 5 μminutes and then incubated for 30 min at 4° C. for complete lysis. The lysate was transferred to an Optiplate (Perkin Elmer, cat #6007290).
Acceptor mix (PerkinElmer, cat #ALSU-PEGFR-A50K) was prepared just before use and 5 μL was dispensed to all the wells, followed by a 1.5-2 h incubation at room temperature in dark. The donor mix (PerkinElmer, cat #ALSU-PEGFR-A50K) was prepared under low light conditions prior to use and 5 μl of donor mix was added to all the wells under subdued lighting or green filters. The plates were placed on a shaker for 5 μmin, sealed, and incubated overnight at room temperature in dark. Plates were read on the Envision (PerkinElmer) using standard AlphaLISA settings.
The percentage of inhibition on EGFR phosphorylation was calculated following equation: % Inhibition=100×(LumHC−LumSample)/(LumHC−LumLC). The low and high controls (LC/HC) are generated from lysate from wells with cells treated with DMSO or […] Staurosporine (BioAustralis, cat #BIA-S1086), […]. IC50 values were calculated by fitting the Curve using XLfit (v5.3.1.3), equation 201: Y=Bottom+(Top−Bottom)/(1+10^((Log IC50−X)*HillSlope)).

T1 sequence (P04626 23-1255): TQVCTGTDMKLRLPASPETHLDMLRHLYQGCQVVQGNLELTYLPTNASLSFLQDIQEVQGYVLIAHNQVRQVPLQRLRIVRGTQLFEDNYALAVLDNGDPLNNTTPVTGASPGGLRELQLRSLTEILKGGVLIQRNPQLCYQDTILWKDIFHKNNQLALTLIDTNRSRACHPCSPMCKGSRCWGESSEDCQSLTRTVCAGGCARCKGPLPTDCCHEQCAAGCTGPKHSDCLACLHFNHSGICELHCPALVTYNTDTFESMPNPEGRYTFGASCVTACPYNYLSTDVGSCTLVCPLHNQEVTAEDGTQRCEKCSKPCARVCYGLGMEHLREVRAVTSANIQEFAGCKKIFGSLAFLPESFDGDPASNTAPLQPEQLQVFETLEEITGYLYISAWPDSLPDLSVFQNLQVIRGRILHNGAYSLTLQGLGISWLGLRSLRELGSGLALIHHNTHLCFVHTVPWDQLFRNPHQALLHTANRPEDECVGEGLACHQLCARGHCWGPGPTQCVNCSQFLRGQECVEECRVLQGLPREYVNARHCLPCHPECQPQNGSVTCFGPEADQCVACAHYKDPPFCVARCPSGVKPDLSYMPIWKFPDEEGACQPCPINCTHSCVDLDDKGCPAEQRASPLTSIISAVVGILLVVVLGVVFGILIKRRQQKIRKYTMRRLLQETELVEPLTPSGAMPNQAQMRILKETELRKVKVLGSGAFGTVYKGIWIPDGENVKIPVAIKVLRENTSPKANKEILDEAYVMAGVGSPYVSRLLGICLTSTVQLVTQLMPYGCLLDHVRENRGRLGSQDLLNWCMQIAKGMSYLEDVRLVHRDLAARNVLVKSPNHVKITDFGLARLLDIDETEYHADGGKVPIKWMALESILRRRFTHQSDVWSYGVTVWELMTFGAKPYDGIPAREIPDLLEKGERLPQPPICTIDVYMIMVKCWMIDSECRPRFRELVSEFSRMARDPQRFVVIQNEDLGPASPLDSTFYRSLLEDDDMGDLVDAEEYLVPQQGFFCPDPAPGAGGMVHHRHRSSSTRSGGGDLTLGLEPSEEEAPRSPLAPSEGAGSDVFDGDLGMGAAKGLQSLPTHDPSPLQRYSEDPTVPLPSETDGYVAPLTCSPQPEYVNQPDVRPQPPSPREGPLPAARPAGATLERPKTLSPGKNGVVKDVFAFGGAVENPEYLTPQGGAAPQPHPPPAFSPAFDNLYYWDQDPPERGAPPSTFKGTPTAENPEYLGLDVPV
T2 sequence (P00533 25-1210): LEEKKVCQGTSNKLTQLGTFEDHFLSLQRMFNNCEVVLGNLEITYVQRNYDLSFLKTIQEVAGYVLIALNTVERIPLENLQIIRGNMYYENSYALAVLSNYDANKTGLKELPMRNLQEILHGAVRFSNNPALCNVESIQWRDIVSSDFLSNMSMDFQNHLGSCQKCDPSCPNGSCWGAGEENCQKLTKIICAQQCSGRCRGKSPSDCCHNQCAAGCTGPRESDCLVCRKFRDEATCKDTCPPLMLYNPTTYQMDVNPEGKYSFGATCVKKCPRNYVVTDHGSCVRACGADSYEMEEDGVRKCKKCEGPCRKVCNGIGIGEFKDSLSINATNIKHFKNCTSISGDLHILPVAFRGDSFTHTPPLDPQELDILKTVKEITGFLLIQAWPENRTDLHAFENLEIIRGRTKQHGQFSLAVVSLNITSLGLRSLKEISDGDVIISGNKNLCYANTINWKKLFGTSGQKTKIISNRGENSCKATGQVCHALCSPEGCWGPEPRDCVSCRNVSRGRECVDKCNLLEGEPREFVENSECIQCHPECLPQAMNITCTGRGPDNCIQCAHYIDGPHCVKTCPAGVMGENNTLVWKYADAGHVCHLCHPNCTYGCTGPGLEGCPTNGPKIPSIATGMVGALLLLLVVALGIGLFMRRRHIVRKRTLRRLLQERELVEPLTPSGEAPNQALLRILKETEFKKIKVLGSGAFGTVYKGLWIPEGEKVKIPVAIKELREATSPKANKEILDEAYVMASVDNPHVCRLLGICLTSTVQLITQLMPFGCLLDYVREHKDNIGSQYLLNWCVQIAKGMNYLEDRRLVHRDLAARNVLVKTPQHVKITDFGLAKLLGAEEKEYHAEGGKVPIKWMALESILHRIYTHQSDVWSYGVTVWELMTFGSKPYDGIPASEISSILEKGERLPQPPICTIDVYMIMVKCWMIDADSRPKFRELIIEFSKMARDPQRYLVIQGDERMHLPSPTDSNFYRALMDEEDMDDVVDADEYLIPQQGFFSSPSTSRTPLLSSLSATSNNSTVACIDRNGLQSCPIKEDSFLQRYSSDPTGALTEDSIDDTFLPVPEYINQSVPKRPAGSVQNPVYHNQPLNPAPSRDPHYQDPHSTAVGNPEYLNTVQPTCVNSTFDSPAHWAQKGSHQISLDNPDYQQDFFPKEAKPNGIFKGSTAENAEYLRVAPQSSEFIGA

SMILES | IC50 [1] [µM] | IC50 [2] [µM]
Cc1cc(Nc2ncnc3cnc4c(c23)OC[C@H]2COCCN42)ccc1Oc1ccn2ncnc2c1 [Compound 106, (R)—N-(4-([1,2,4]triazolo[1,5-a]pyridin-7-yloxy)-3-methylphenyl)-6a,7,9,10-tetrahydro-6H-[1,4]oxazino[4,3-d]pyrimido[5′,4′:4,5]pyrido[3,2-b][1,4]oxazin-4-amine] | 0.0371 | > 10
Cc1cc(Nc2ncnc3ccc4c(c23)OC[C@H]2CN4CCO2)ccc1Oc1ccn2ncnc2c1 [Compound 71, (3R)—N-(4-([1,2,4]triazolo[1,5-a]pyridin-7-yloxy)-3-methylphenyl)-2,3,5,6-tetrahydro-3,7-methano[1,4,7]dioxazonino[5,6-f]quinazolin-13-amine] | 0.227 | > 10
Cc1cc(Nc2ncnc3cc4c(nc23)N2CCOC[C@H]2CO4)ccc1Oc1ccn2ncnc2c1 [Compound 67, (S)—N-(4-([1,2,4]triazolo[1,5-a]pyridin-7-yloxy)-3-methylphenyl)-1,2,4a,5-tetrahydro-4H-[1,4]oxazino[4,3-d]pyrimido[4′,5′:5,6]pyrido[3,2-b][1,4]oxazin-11-amine] | 0.0464 | > 10
Cc1cc(Nc2ncnc3ccc4c(c23)OC[C@H]2CN(C)CCN42)ccc1Oc1ccn2ncnc2c1 [Compound 42, (R)—N-(4-([1,2,4]triazolo[1,5-a]pyridin-7-yloxy)-3-methylphenyl)-8-methyl-6,6a,7,8,9,10-hexahydropyrazino[1′,2′:4,5][1,4]oxazino[2,3-f]quinazolin-4-amine] | 0.0315 | > 10
Cc1cc(Nc2ncnc3cc4c(nc23)N2CCNC[C@H]2CO4)ccc1Oc1ccc2c(c1)ncn2C [Compound 37, (S)—N-(3-methyl-4-((1-methyl-1H-benzo[d]imidazol-5-yl)oxy)phenyl)-1,2,3,4,4a,5-hexahydropyrazino[1,2-d]pyrimido[4′,5′:5,6]pyrido[3,2-b][1,4]oxazin-11-amine] | 0.0776 | > 10
Cc1cc(Nc2ncnc3cc4c(cc23)N2CCNC[C@@H]2CO4)ccc1Oc1ccn2ncnc2c1 [Compound 59, (R)—N-(4-([1,2,4]triazolo[1,5-a]pyridin-7-yloxy)-3-methylphenyl)-1,2,3,4,4a,5-hexahydropyrazino[1′,2′:4,5][1,4]oxazino[3,2-g]quinazolin-11-amine] | 0.0917 | > 10
Cc1cc(Nc2ncnc3cc4c(cc23)N2CCN(C)C[C@H]2CO4)ccc1Oc1ccn2ncnc2c1 [Compound 58, (S)—N-(4-([1,2,4]triazolo[1,5-a]pyridin-7-yloxy)-3-methylphenyl)-3-methyl-1,2,3,4,4a,5-hexahydropyrazino[1′,2′:4,5][1,4]oxazino[3,2-g]quinazolin-11-amine] | 0.0219 | > 10
Cc1cc(Nc2ncnc3cc4c(c(F)c23)N2CCOC[C@H]2CO4)ccc1Oc1ccn2ncnc2c1 [Compound 105, (S)—N-(4-([1,2,4]triazolo[1,5-a]pyridin-7-yloxy)-3-methylphenyl)-12-fluoro-1,2,4a,5-tetrahydro-4H-[1,4]oxazino[4′,3′:4,5][1,4]oxazino[3,2-g]quinazolin-11-amine] | 0.225 | > 10
Cc1cc(Nc2ncnc3ccc4c(c23)OC[C@@H]2CNCCN42)ccc1Oc1ccn2ncnc2c1 [Compound 43, (S)—N-(4-([1,2,4]triazolo[1,5-a]pyridin-7-yloxy)-3-methylphenyl)-6,6a,7,8,9,10-hexahydropyrazino[1′,2′:4,5][1,4]oxazino[2,3-f]quinazolin-4-amine] | 0.0765 | > 10
CCN1CCN2c3nc4c(Nc5ccc(Oc6ccn7ncnc7c6)c(C)c5)ncnc4cc3OC[C@@H]2C1 [Compound 65, (S)—N-(4-([1,2,4]triazolo[1,5-a]pyridin-7-yloxy)-3-methylphenyl)-3-ethyl-1,2,3,4,4a,5-hexahydropyrazino[1,2-d]pyrimido[4′,5′:5,6]pyrido[3,2-b][1,4]oxazin-11-amine] | 0.0949 | > 10
